Experimental data taken from ChEMBL document CHEMBL4609989, “Synthesis and antileishmanial activity of fluorinated rhodacyanine analogues: The 'fluorine-walk' analysis” (Bioorg Med Chem, 2020).
Active and inactive are the calls of the source. The calls are words filed in the database; no cut-off is given here.

Legend:
[1] = tested on: Leishmania martiniquensis; experiment: Antileishmanial activity against Leishmania martiniquensis MHOM/MQ/92/MAR promastigote at 0.1 uM incubated for 72 hrs by resazurin dye based colorimetric assay relative to control; type: functional; details: for inhibition at 0.1 µM: Leishmania martiniquensis, MHOM/MQ/92/MAR, 72 h
[2] = tested on: J774.A1; experiment: Cytotoxicity against mouse J774A.1 cells assessed as reduction in cell viability at 4.0 uM incubated for 72 hrs by colorimetric assay relative to control; type: cell-based; details: j774.a1, 72 h
[3] = tested on: Leishmania martiniquensis; experiment: Antileishmanial activity against Leishmania martiniquensis MHOM/MQ/92/MAR promastigote incubated for 72 hrs by resazurin dye based colorimetric assay; type: functional, organism-based
[4] = tested on: Leishmania orientalis; experiment: Antileishmanial activity against Leishmania orientalis MHOM/TH/2010/PCM2 promastigote at 0.25 uM incubated for 72 hrs by resazurin dye based colorimetric assay relative to control; type: functional; details: for inhibition at 0.25 µM: Leishmania orientalis, MHOM/TH/2010/PCM2, 72 h
[5] = tested on: Leishmania martiniquensis; experiment: Antileishmanial activity against Leishmania martiniquensis MHOM/MQ/92/MAR promastigote at 0.25 uM incubated for 72 hrs by resazurin dye based colorimetric assay relative to control; type: functional; details: for inhibition at 0.25 µM: Leishmania martiniquensis, MHOM/MQ/92/MAR, 72 h
[6] = tested on: Leishmania orientalis; experiment: Antileishmanial activity against Leishmania orientalis MHOM/TH/2010/PCM2 axenic amastigotes at 0.25 uM incubated for 72 hrs by resazurin dye based colorimetric assay relative to control; type: functional; details: for inhibition at 0.25 µM: Leishmania orientalis, MHOM/TH/2010/PCM2, 72 h
[7] = tested on: Leishmania orientalis; experiment: Antileishmanial activity against Leishmania orientalis MHOM/TH/2010/PCM2 axenic amastigotes incubated for 72 hrs by resazurin dye based colorimetric assay; type: functional, organism-based
[8] = tested on: Leishmania orientalis; experiment: Antileishmanial activity against Leishmania orientalis MHOM/TH/2010/PCM2 promastigote incubated for 72 hrs by resazurin dye based colorimetric assay; type: functional, organism-based
[9] = tested on: J774.A1; experiment: Cytotoxicity against mouse J774A.1 cells assessed as reduction in cell viability at 0.25 uM incubated for 72 hrs by colorimetric assay relative to control; type: cell-based; details: j774.a1, 72 h
[10] = tested on: Leishmania martiniquensis; experiment: Potency index, ratio of IC50 for miltefosine to IC50 for test compound for antileishmanial activity against Leishmania martiniquensis MHOM/MQ/92/MAR promastigote incubated for 72 hrs by resazurin dye based colorimetric assay; type: functional
[11] = tested on: Leishmania orientalis; experiment: Antileishmanial activity against Leishmania orientalis MHOM/TH/2010/PCM2 promastigote at 0.1 uM incubated for 72 hrs by resazurin dye based colorimetric assay relative to control; type: functional; details: for inhibition at 0.1 µM: Leishmania orientalis, MHOM/TH/2010/PCM2, 72 h
[12] = Leishmania martiniquensis, MHOM/MQ/92/MAR, 72 h
[13] = Leishmania orientalis, MHOM/TH/2010/PCM2, 72 h

Compound	inhibition (INH) [1] [%]	Activity [2] [%]	IC50 [3] [nM]	inhibition (INH) [4] [%]	inhibition (INH) [5] [%]	inhibition (INH) [6] [%]	IC50 [7] [nM]	IC50 [8] [nM]	Activity [9]	Ratio IC50 [10]	inhibition (INH) [11] [%]	inhibition at 0.1 µM [1] [%]	IC50 [3, 12] [nM]	inhibition at 0.25 µM [4] [%]	inhibition at 0.25 µM [5] [%]	inhibition at 0.25 µM [6] [%]	IC50 [7, 13] [nM]	IC50 [8, 13] [nM]	inhibition at 0.1 µM [11] [%]	inhibition [11]
CCn1c(=O)/c(=C/C=C2\Sc3ccccc3N2C)s/c1=C\c1sc2ccc(F)cc2[n+]1C.[Cl-]	82.8	26.9	85	91.7	89.3	86.5	80	104	Non-Toxic	200	66.2	–	–	–	–	–	–	–	–	–
CCn1c(=O)/c(=C/C=C2\Sc3ccc(F)cc3N2C)s/c1=C\c1sc2ccccc2[n+]1C.[Cl-]	–	37	–	–	–	–	–	–	Non-Toxic	–	–	76.9	139	90.4	89.2	92.2	134	133	50.1	–
CCn1c(=O)/c(=C/C=C2\Sc3ccccc3N2C)s/c1=C\c1sc2cc(OC(F)(F)F)ccc2[n+]1C.[Cl-]	–	48.6	–	–	–	–	–	–	Non-Toxic	–	–	8.7	–	60.9	27.1	59.2	–	–	12.5	–
CCn1c(=O)/c(=C/C=C2\Sc3ccccc3N2C)s/c1=C\c1sc2ccc(F)cc2[n+]1C.Cc1ccc(S(=O)(=O)[O-])cc1	–	31.1	–	–	–	–	–	–	Non-Toxic	–	–	85.4	76	91.7	89.5	91	110	98	78.8	–
CCn1c(=O)/c(=C/C=C2\Sc3ccccc3N2C)s/c1=C\c1sc2ccccc2[n+]1C.[Cl-]	–	19.2	–	–	–	–	–	–	Non-Toxic	–	–	21	658	81.5	70.8	36.8	909	302	11.5	–
CCn1c(=O)/c(=C/C=C2\Sc3ccc(F)cc3N2C)s/c1=C\c1sc2cc(F)ccc2[n+]1C.[Cl-]	–	21	–	–	–	–	–	–	Non-Toxic	–	–	43.9	–	79.3	75.9	88.9	81	–	20.4	–
CCn1c(=O)/c(=C/C=C2\Sc3ccccc3N2C)s/c1=C\c1sc2c(F)cccc2[n+]1C.[Cl-]	–	88.5	–	–	–	–	–	–	Non-Toxic	–	–	41.1	–	88.9	85.2	42.9	–	–	13.9	–
C[C@@H]1[C@H](O)[C@@H](C)/C=C/C=C/C=C/C=C/C=C/C=C/C=C/[C@H](O[C@@H]2O[C@H](C)[C@@H](O)[C@H](N)[C@@H]2O)C[C@@H]2O[C@](O)(C[C@@H](O)C[C@@H](O)[C@H](O)CC[C@@H](O)C[C@@H](O)CC(=O)O[C@H]1C)C[C@H](O)[C@H]2C(=O)O [AMPHOTERICIN B]	–	16.7	–	–	–	–	–	–	Non-Toxic	–	–	94.2	31	96.7	97.5	91.1	108	23	96.2	–
CCn1c(=O)/c(=C/C=C2\Sc3c(F)cccc3N2C)s/c1=C\c1sc2ccccc2[n+]1C.[Cl-]	–	72.8	–	–	–	–	–	–	Non-Toxic	–	–	56.1	272	75.4	92.7	47.9	–	–	–	inactive
CCn1c(=O)/c(=C/C=C2\Sc3cc(F)ccc3N2C)s/c1=C\c1sc2cc(F)ccc2[n+]1C.[Cl-]	–	46	–	–	–	–	–	–	Non-Toxic	–	–	17.6	–	76	62.9	62.1	–	–	1.9	–
